Measured values from patent US9493436B2, “Tyrosine phosphatase inhibitors and uses thereof to modulate the activity of enzymes involved in the pathology of Mycobacterium tuberculosis” (priority 2011, dated 2016).
Like-named read-outs stand apart in the source and are kept apart here.

Target: T1, mPTPB (Mycobacterium tuberculosis, UniProt I6WXK4)
T1 construct: The full-length mPTPB with a N-terminal His6-tag was expressed and purified; His6 (N); made in house; host or cells: E. coli BL21/DE3 (pET28b-mPTPB)
T1 sequence (I6WXK4 1-276): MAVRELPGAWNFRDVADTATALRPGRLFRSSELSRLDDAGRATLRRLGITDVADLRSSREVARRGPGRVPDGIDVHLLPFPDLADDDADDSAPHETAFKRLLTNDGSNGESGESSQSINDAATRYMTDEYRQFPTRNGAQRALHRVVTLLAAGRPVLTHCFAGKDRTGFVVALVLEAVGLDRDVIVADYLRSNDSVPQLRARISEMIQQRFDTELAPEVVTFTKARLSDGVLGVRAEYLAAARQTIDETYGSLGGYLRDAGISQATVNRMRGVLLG
Assay: biochemical
Assay type: biochemical
Conditions: for In % @ 1 μM (mPTPB): library 13 screened in situ

[1] = pNPP substrate, pH 7.0, 25° C., read-out: IC50 (μM) against mPTPB

Structure (SMILES): CC(C)c1ccc(NC(=O)COc2cccc(-c3oc4cc(O)c(C(=O)O)cc4c3C#Cc3cccc(Cl)c3)c2)cc1
- IC50 (read-out: IC50 for mPTPB): ~0.025 µM

Structure (SMILES): Cn1c(-c2ccc(OC(F)(F)F)cc2)c(I)c2cc(C(=O)O)c(O)cc21 [Compound 207e, 6-hydroxy-3-iodo-1-methyl-2-(4-(trifluoromethoxy)phenyl)-1H-indole-5-carboxylic acid]
- IC50 [1]: 5.5 ± 0.5 µM

Structure (SMILES): O=C(O)c1cc2c(C=Cc3cccc(C(F)(F)F)c3)c(-c3ccccc3)oc2cc1O [44 (L01X09)]
- IC50 [1]: 1.2 µM

Structure (SMILES): CC(C)[C@H]1CC[C@H](C)C[C@@H]1OCC(=O)NCCC(=O)c1c(-c2ccccc2C(F)(F)F)n(C)c2cc(O)c(C(=O)O)cc12 [Compound 213c, 6-hydroxy-3-(3-(2-(((1S,2R,5S)-2-isopropyl-5-methylcyclohexyl)oxy)acetamido)propanoyl)-1-methyl-2-(2-(trifluoromethyl)phenyl)-1H-indole-5-carboxylic acid]
- In % @ 1 μM (mPTPB): 5%
- IC50 [1]: 3.3 ± 0.1 µM

Structure (SMILES): O=C(O)c1cc2c(C=Cc3cc(F)cc(F)c3)c(-c3ccccc3)oc2cc1O [43 (L01Z25)]
- IC50 [1]: 1.2 µM

Structure (SMILES): O=C(O)COc1cccc(C#Cc2c(-c3ccc(OC(F)(F)F)cc3)oc3cc(O)c(C(=O)O)cc23)c1 [39 (L73Z05)]
- IC50 [1]: 0.19 µM

Structure (SMILES): Cn1c(-c2ccccc2C(F)(F)F)c(C(=O)CCNC(=O)c2ccc3nc(-c4ccccc4Br)[nH]c3c2)c2cc(C(=O)O)c(O)cc21 [Compound 213d, 3-(3-(2-(2-bromophenyl)-1H-benzo[d]imidazole-6-carboxamido)propanoyl)-6-hydroxy-1-methyl-2-(2-(trifluoromethyl)phenyl)-1H-indole-5-carboxylic acid]
- In % @ 1 μM (mPTPB): 10%
- IC50 [1]: 5.2 ± 0.2 µM

Structure (SMILES): CC(=O)NCCC(=O)c1c(-c2ccccc2C(F)(F)F)n(C)c2cc(O)c(C(=O)O)cc12 [Compound 213e, 3-(3-acetamidopropanoyl)-6-hydroxy-1-methyl-2-(2-(trifluoromethyl)phenyl)-1H-indole-5-carboxylic acid]
- In % @ 1 μM (mPTPB): 0%
- IC50 [1]: > 20 µM

Structure (SMILES): Cn1c(-c2cccc(C(F)(F)F)c2)c(I)c2cc(C(=O)O)c(O)cc21 [Compound 207b, 6-hydroxy-3-iodo-1-methyl-2-(3-(trifluoromethyl)phenyl)-1H-indole-5-carboxylic acid]
- IC50 [1]: 2.2 ± 0.2 µM

Structure (SMILES): Cn1c(-c2ccccc2C(F)(F)F)c(C#Cc2cccc(C(F)(F)F)c2)c2cc(C(=O)O)c(O)cc21 [Compound 209b, 6-hydroxy-1-methyl-2-(2-(trifluoromethyl)phenyl)-3-((3-(trifluoromethyl)phenyl)ethynyl)-1H-indole-5-carboxylic acid]
- IC50 [1]: 0.23 ± 0.04 µM

Structure (SMILES): Cn1c(-c2cccc(O)c2)c(I)c2cc(C(=O)O)c(O)cc21 [Compound 207k, 6-hydroxy-2-(3-hydroxyphenyl)-3-iodo-1-methyl-1H-indole-5-carboxylic acid]
- IC50 [1]: 18 ± 1 µM

Structure (SMILES): Cn1c(-c2ccccc2C(F)(F)F)c(C(=O)CCNC(=O)c2cccc(I)c2)c2cc(C(=O)O)c(O)cc21 [Compound 213b, 6-hydroxy-3-(3-(3-iodobenzamido)propanoyl)-1-methyl-2-(2-(trifluoromethyl)phenyl)-1H-indole-5-carboxylic acid]
- In % @ 1 μM (mPTPB): 52%
- IC50 [1]: 0.68 ± 0.04 µM

Structure (SMILES): C#Cc1c(-c2cccc(Cl)c2)oc2cc(O)c(C(=O)O)cc12 [42 (Core72)]
- IC50 [1]: 3.1 µM

Structure (SMILES): Cn1c(-c2ccc(F)cc2)c(I)c2cc(C(=O)O)c(O)cc21 [Compound 207i, 2-(4-fluorophenyl)-6-hydroxy-3-iodo-1-methyl-1H-indole-5-carboxylic acid]
- IC50 [1]: 12 ± 2 µM

Structure (SMILES): O=C(O)c1cc2c(C#Cc3ccc(Cl)c(Cl)c3)c(-c3ccc(OC(F)(F)F)cc3)oc2cc1O [37 (L73Z02)]
- IC50 [1]: 0.12 µM

Structure (SMILES): O=C(O)c1cc2c(C#Cc3ccc(Oc4ccccc4)cc3)c(-c3ccccc3)oc2cc1O [34 (L01Z12)]
- IC50 [1]: 0.043 µM

Structure (SMILES): Cn1c(-c2ccccc2C(F)(F)F)c(C#Cc2ccc(Oc3ccccc3)cc2)c2cc(C(=O)O)c(O)cc21 [Compound 209d, 6-hydroxy-1-methyl-3-((4-phenoxyphenyl)ethynyl)-2-(2-(trifluoromethyl)phenyl)-1H-indole-5-carboxylic acid]
- IC50 [1]: 0.46 ± 0.06 µM

Structure (SMILES): Cn1c(-c2ccc(-c3ccccc3)cc2)c(I)c2cc(C(=O)O)c(O)cc21 [Compound 207c, 2-([1,1′-biphenyl]-4-yl)-6-hydroxy-3-iodo-1-methyl-1H-indole-5-carboxylic acid]
- IC50 [1]: 2.4 ± 0.2 µM

Structure (SMILES): Cn1c(-c2ccccc2)c(I)c2cc(C(=O)O)c(O)cc21 [Compound 207g, 6-hydroxy-3-iodo-1-methyl-2-phenyl-1H-indole-5-carboxylic acid]
- IC50 [1]: 11 ± 1 µM

Structure (SMILES): Cn1c(-c2ccccc2C(F)(F)F)c(C#Cc2ccccc2C(F)(F)F)c2cc(C(=O)O)c(O)cc21 [Compound 209c, 6-hydroxy-1-methyl-2-(2-(trifluoromethyl)phenyl)-3-((2-(trifluoromethyl)phenyl)ethynyl)-1H-indole-5-carboxylic acid]
- IC50 [1]: 0.3 ± 0.05 µM

Structure (SMILES): C#Cc1c(-c2ccc(-c3ccccc3)cc2)oc2cc(O)c(C(=O)O)cc12 [41 (Core71)]
- IC50 [1]: 0.85 µM

Structure (SMILES): Cn1c(-c2ccccc2F)c(I)c2cc(C(=O)O)c(O)cc21 [Compound 207j, 2-(2-fluorophenyl)-6-hydroxy-3-iodo-1-methyl-1H-indole-5-carboxylic acid]
- IC50 [1]: 16 ± 2 µM

Structure (SMILES): Cn1c(-c2cccc(F)c2)c(I)c2cc(C(=O)O)c(O)cc21 [Compound 207h, 2-(3-fluorophenyl)-6-hydroxy-3-iodo-1-methyl-1H-indole-5-carboxylic acid]
- IC50 [1]: 11 ± 1 µM

Structure (SMILES): Cn1c(-c2ccc(C(F)(F)F)cc2)c(I)c2cc(C(=O)O)c(O)cc21 [Compound 207f, 6-hydroxy-3-iodo-1-methyl-2-(4-(trifluoromethyl)phenyl)-1H-indole-5-carboxylic acid]
- IC50 [1]: 7 ± 1 µM

Structure (SMILES): Cn1c(-c2ccccc2C(F)(F)F)c(C#Cc2ccc(C(F)(F)F)cc2)c2cc(C(=O)O)c(O)cc21 [Compound 209e, 6-hydroxy-1-methyl-2-(2-(trifluoromethyl)phenyl)-3-((4-(trifluoromethyl)phenyl)ethynyl)-1H-indole-5-carboxylic acid]
- IC50 [1]: 0.6 ± 0.1 µM

Structure (SMILES): O=C(O)c1cc2c(C#Cc3ccsc3)c(-c3ccc(OC(F)(F)F)cc3)oc2cc1O [38 (L73Z03)]
- IC50 [1]: 0.35 µM

Structure (SMILES): Cn1c(-c2ccccc2C(F)(F)F)c(C#Cc2ccc(OC(F)(F)F)cc2)c2cc(C(=O)O)c(O)cc21 [Compound 209f, 6-hydroxy-1-methyl-3-((4-(trifluoromethoxy)phenyl)ethynyl)-2-(2-(trifluoromethyl)phenyl)-1H-indole-5-carboxylic acid]
- IC50 [1]: 0.85 ± 0.2 µM

Structure (SMILES): O=C(O)c1cc2c(C#Cc3cccc(Cl)c3)c(-c3ccc(OC(F)(F)F)cc3)oc2cc1O [36 (L73Z01)]
- IC50 [1]: 0.082 µM

Structure (SMILES): Cn1c(C2CCCCC2)c(I)c2cc(C(=O)O)c(O)cc21 [Compound 207d, 2-cyclohexyl-6-hydroxy-3-iodo-1-methyl-1H-indole-5-carboxylic acid]
- IC50 [1]: 3.6 ± 0.1 µM

Structure (SMILES): C#Cc1c(-c2ccc(OC(F)(F)F)cc2)oc2cc(O)c(C(=O)O)cc12 [35 (Core73)]
- IC50 [1]: 1.71 µM

Structure (SMILES): C#Cc1c(-c2ccc(Oc3ccccc3)cc2)oc2cc(O)c(C(=O)O)cc12 [40 (Core69)]
- IC50 [1]: 2.3 µM
